For test [1], the system named is ethanol-induced gastric ulcers. The experiment in a line: Effects on ethanol-induced gastric ulcers (inhibition of gastric mucosal lesions, oral). The format is in vivo, male rats of the Sprague-Dawley strain. Particulars: p.o., 1 hour before 1 ml absolute ethanol, rat, ID50 of gastric mucosal lesions, read-out: Anti-ulcer activity (ID50, p.o.). How it is done:
Effects on ethanol-induced qastric ulcers
The test animals used were male rats of the Sprague-Dawley strain each having a body weiqht of about 180-200 g, prior to use in this experiment they were starved for about 42 hours. At the end of this time, each animal was orally administered one of the test compounds shown in the following Table 3. in which the compounds are identified by the number of the foregoing Example in which they were prepared. One hour after administration, gastric mucosal lesions were induced by the oral administration of 1 ml of absolute ethanol. One hour after this administration, the animals were sacrificed with dry ice, and their stomachs were removed and fixed with formalin. The area (mm^2) of the mucosal lesions induced on the gastric mucosa by the ethanol was measured by a video image processor and the inhibition of gastric mucosal lesions by each test compound was calculated in terms of the ID50, by comparison with the results achieved from control animals which had been treated as described above, except that no anti ulcer compound was administered and from the results achieved from the test compounds at various levels of administration.
As a control, there was used the following prior art 6-oxo compound (ORNOPROSTIL): [drawing 12]

The test system of test [2] is blood platelet aggregation. The experiment in a line: Inhibition of blood platelet aggregation in vitro (adenosine diphosphate-induced, Born's method). The format is cell-based, Japanese white rabbit. As to conditions: Oryctolagus cuniculus, rabbit PRP/PPP mixture, ADP 5μM. On the procedure:
Inhibition of blood platelet aggregation in vitro
One part by volume of blood from a Japanese white rabbit was mixed immediately after removal with one tenth of its volume of a 3.8% w/v aqueous solution of sodium citrate. The mixture was then centrifuged at 95×G for 15 minutes at room temperature to obtain a platelet-rich plasma (PRP) as the upper layer. The remaining blood sample was then centrifuged for a further 15 minutes at 1000×G to obtain a platelet poor plasma (PPP). By mixing appropriate amounts of the PRP and the PPP, the final platelet count of the mixture was adjusted to 6×105 per μ, platelet aggregation was determined by Born's method [G. V. R. Born: J. Physiol. 62, 67-68 (1962)] by increases in transparency of the test liquid using a platelet aggregometer 25 μl of a solution of the test compound were added to 250 μof the mixture of PRP and PPP and then two minutes after mixing the solutions 25 μl of a liquid containing adenosine diphosphate at a concentration of 5μM were added.
The inhibition of platelet aggregation was assessed by comparing the increase in the amount of light transmitted through the test sample treated platelet-rich plasma with a control platelet-rich plasma which had been treated in the same way, except that the test compound was replaced by physiological saline.

This note sets out measurements from patent US4981872A, “Prostaglandin derivatives, their preparation and their therapeutic use” (Sankyo Company Limited, priority 1987, dated 1991).

In brackets after ≈: the same amount, converted by molar mass.

In general, IC50 refers to the concentration that gives 50% inhibition. Turning to `CCCCC(C)(C)[C@H](O)/C=C/[C@H]1[C@H](O)CC(=O)[C@@H]1CCCC(=O)CCC(=O)OC` [Ex. 31, Methyl 4,9-dioxo-11α,15α-dihydroxy-16,16-dimethylprost 13(E) enoate], the ED50 in test [1] is 4.91 µg/kg. Moreover, in test [2], the IC50 is greater than 10 µg/mL.
The like results for `COC(=O)CCC(=O)CCC[C@H]1C(=O)C[C@@H](O)[C@@H]1/C=C/[C@@H](O)COc1ccccc1` [Ex. 30, Methyl 4,9-dioxo-11α,15α-dihydroxy-16-phenoxy17,18,19,20-tetranprprost 13(E)-enoate] were, in that order, 3.7 µg/kg and greater than 10 µg/mL.
On to `COC(=O)CCCC(=O)CC[C@H]1C(=O)C[C@@H](O)[C@@H]1/C=C/[C@@H](O)COc1ccc(Cl)cc1` [Ex. 11, 5-Oxo-16-p-chlorophenoxy-17,18,19,20-tetranorprostaglandin E1 methyl ester], for which, in test [1], the ED50 amounted to 0.49 µg/kg. In addition, the IC50 in test [2] was greater than 10 µg/mL.
In the case of `COC(=O)CCCC(=O)CC[C@H]1C(=O)C[C@@H](O)[C@@H]1/C=C/[C@@H](O)COc1ccccc1` [Ex. 1, 5-Oxo-16-phenoxy-17,18,19,20-tetranorprostaglandin E1 methyl ester], in test [1], the ED50 came out at 2.94 µg/kg. Also, the half-inhibitory concentration (IC50) in test [2] is greater than 10 µg/mL.
`CCCC[C@H](C)C[C@H](O)/C=C/[C@H]1[C@H](O)CC(=O)[C@@H]1CC(=O)CCCCC(=O)OC` [Control, reference compound]: the ED50 in test [1] turned out to be 0.2 µg/kg. Further, in test [2], the concentration for half-maximal inhibition (IC50) came out at 0.0019 µg/mL (≈ 0.00463 µM).
